Experimental data from PubChem BioAssay (NCI).
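Protocol summary: plate cells (96-well), add compound at 5 concentrations, incubate 48 h, interpolate endpoints linearly. TGI denotes the concentration required for complete inhibition of growth.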

Legend:
Experiment in all cases: inhibition of tumour cell growth, NCI panel, 48 h
[1] = tested on: 786-0 renal
[2] = tested on: A498 renal
[3] = tested on: A549 NSCLC
[4] = tested on: ACHN renal
[5] = tested on: BT-549 breast
[6] = tested on: CAKI-1 renal
[7] = tested on: CCRF-CEM leukemia
[8] = tested on: COLO 205 colon
[9] = tested on: DU-145 prostate
[10] = tested on: EKVX NSCLC
[11] = tested on: HCT-116 colon
[12] = tested on: HCT-15 colon
[13] = tested on: HL-60(TB) leukemia
[14] = tested on: HOP-62 NSCLC
[15] = tested on: HOP-92 NSCLC
[16] = tested on: HS 578T breast
[17] = tested on: HT29 colon
[18] = tested on: IGROV1 ovarian
[19] = tested on: K-562 leukemia
[20] = tested on: KM12 colon
[21] = tested on: LOX IMVI melanoma
[22] = tested on: M14 melanoma
[23] = tested on: MALME-3M melanoma
[24] = tested on: MCF7 breast
[25] = tested on: MDA-MB-231 breast
[26] = tested on: MDA-N
[27] = tested on: MOLT-4 leukemia
[28] = tested on: NCI-H226 lung
[29] = tested on: NCI-H23 lung
[30] = tested on: NCI-H460 lung
[31] = tested on: NCI/ADR-RES ovarian
[32] = tested on: OVCAR-3 ovarian
[33] = tested on: OVCAR-4 ovarian
[34] = tested on: OVCAR-5 ovarian
[35] = tested on: OVCAR-8 ovarian
[36] = tested on: PC-3 prostate
[37] = tested on: RPMI-8226 leukemia
[38] = tested on: RXF 393 renal
[39] = tested on: SF-268 CNS
[40] = tested on: SF-295 CNS
[41] = tested on: SF-539 CNS
[42] = tested on: SK-MEL-2 melanoma
[43] = tested on: SK-MEL-28 melanoma
[44] = tested on: SK-MEL-5 melanoma
[45] = tested on: SK-OV-3 ovarian
[46] = tested on: SN12C renal
[47] = tested on: SNB-19 CNS
[48] = tested on: SNB-75 CNS
[49] = tested on: SW-620 colon
[50] = tested on: T-47D breast
[51] = tested on: TK-10 renal
[52] = tested on: U251 CNS
[53] = tested on: UACC-257 melanoma
[54] = tested on: UACC-62 melanoma
[55] = tested on: UO-31 renal
[56] = tested on: HCC-2998 colon
[57] = tested on: MDA-MB-435
[58] = tested on: NCI-H522 lung
[59] = tested on: SR leukemia

Compound: CCCCOC(=O)C1CN2C(=NC1(C(F)(F)F)C(F)(F)F)Sc1ccccc12 (stereo not drawn)
- TGI [1]: > 100 µM
- TGI [2]: > 100 µM
- TGI [3]: > 100 µM
- TGI [4]: > 100 µM
- TGI [5]: > 100 µM
- TGI [6]: > 100 µM
- TGI [7]: > 100 µM
- TGI [8]: > 100 µM
- TGI [9]: > 100 µM
- TGI [10]: > 100 µM
- TGI [11]: > 100 µM
- TGI [12]: > 100 µM
- TGI [13]: 68.9 µM
- TGI [14]: > 100 µM
- TGI [15]: > 100 µM
- TGI [16]: > 100 µM
- TGI [17]: > 100 µM
- TGI [18]: > 100 µM
- TGI [19]: > 100 µM
- TGI [20]: > 100 µM
- TGI [21]: > 100 µM
- TGI [22]: > 100 µM
- TGI [23]: > 100 µM
- TGI [24]: > 100 µM
- TGI [25]: > 100 µM
- TGI [26]: > 100 µM
- TGI [27]: 84.6 µM
- TGI [28]: > 100 µM
- TGI [29]: > 100 µM
- TGI [30]: > 100 µM
- TGI [31]: > 100 µM
- TGI [32]: > 100 µM
- TGI [33]: > 100 µM
- TGI [34]: > 100 µM
- TGI [35]: > 100 µM
- TGI [36]: 42.4 µM
- TGI [37]: > 100 µM
- TGI [38]: 63.4 µM
- TGI [39]: > 100 µM
- TGI [40]: > 100 µM
- TGI [41]: > 100 µM
- TGI [42]: > 100 µM
- TGI [43]: > 100 µM
- TGI [44]: 54.2 µM
- TGI [45]: > 100 µM
- TGI [46]: > 100 µM
- TGI [47]: > 100 µM
- TGI [48]: > 100 µM
- TGI [49]: > 100 µM
- TGI [50]: > 100 µM
- TGI [51]: > 100 µM
- TGI [52]: > 100 µM
- TGI [53]: > 100 µM
- TGI [54]: > 100 µM
- TGI [55]: > 100 µM

Compound: CC(=O)O[C@H]1[C@@H](N2CCN(C)CC2)C[C@H]2[C@@H]3CC=C4C[C@@H](N5CCCC5)CC[C@]4(C)[C@H]3CC[C@@]21C
- TGI [1]: > 100 µM
- TGI [2]: > 100 µM
- TGI [3]: > 100 µM
- TGI [4]: > 100 µM
- TGI [5]: > 100 µM
- TGI [6]: > 100 µM
- TGI [7]: > 100 µM
- TGI [8]: > 100 µM
- TGI [10]: > 100 µM
- TGI [56]: > 100 µM
- TGI [11]: > 100 µM
- TGI [12]: > 100 µM
- TGI [13]: 30.1 µM
- TGI [14]: > 100 µM
- TGI [15]: > 100 µM
- TGI [16]: > 100 µM
- TGI [17]: > 100 µM
- TGI [18]: > 100 µM
- TGI [19]: 33 µM
- TGI [20]: > 100 µM
- TGI [21]: 39.4 µM
- TGI [22]: 34.5 µM
- TGI [23]: 51 µM
- TGI [24]: > 100 µM
- TGI [25]: > 100 µM
- TGI [57]: > 100 µM
- TGI [26]: > 100 µM
- TGI [27]: > 100 µM
- TGI [28]: > 100 µM
- TGI [29]: > 100 µM
- TGI [30]: > 100 µM
- TGI [58]: > 100 µM
- TGI [31]: > 100 µM
- TGI [32]: > 100 µM
- TGI [33]: > 100 µM
- TGI [34]: > 100 µM
- TGI [35]: > 100 µM
- TGI [36]: > 100 µM
- TGI [37]: 44.2 µM
- TGI [38]: 71.8 µM
- TGI [39]: > 100 µM
- TGI [40]: 53.5 µM
- TGI [41]: 29.3 µM
- TGI [42]: > 100 µM
- TGI [43]: 96.9 µM
- TGI [44]: 73 µM
- TGI [45]: > 100 µM
- TGI [46]: > 100 µM
- TGI [47]: > 100 µM
- TGI [48]: > 100 µM
- TGI [59]: 5.52 µM
- TGI [49]: > 100 µM
- TGI [50]: > 100 µM
- TGI [51]: > 100 µM
- TGI [52]: > 100 µM
- TGI [53]: 49.4 µM
- TGI [54]: > 100 µM
- TGI [55]: > 100 µM

Compound: Cc1c2cccc-2c(OCCO)cc2c1[nH]c1ccccc12
- TGI [1]: 7.14 µM
- TGI [2]: > 31.6 µM
- TGI [3]: 11.6 µM
- TGI [4]: 2.72 µM
- TGI [5]: 7.34 µM
- TGI [6]: 3.67 µM
- TGI [7]: > 29.6 µM
- TGI [8]: 9.4 µM
- TGI [9]: > 50.1 µM
- TGI [10]: 5.18 µM
- TGI [56]: 12.1 µM
- TGI [11]: > 23.2 µM
- TGI [12]: 22.9 µM
- TGI [13]: > 19.9 µM
- TGI [14]: 14.5 µM
- TGI [15]: > 28.7 µM
- TGI [16]: > 49.6 µM
- TGI [17]: 14.2 µM
- TGI [18]: 8.92 µM
- TGI [19]: > 24.3 µM
- TGI [20]: 7.04 µM
- TGI [21]: 4.97 µM
- TGI [22]: 4.36 µM
- TGI [23]: 3.49 µM
- TGI [24]: 19.4 µM
- TGI [25]: 6.56 µM
- TGI [57]: 15.8 µM
- TGI [26]: 7.9 µM
- TGI [27]: 20.1 µM
- TGI [28]: 21 µM
- TGI [29]: 12.3 µM
- TGI [30]: 18.3 µM
- TGI [58]: 5.38 µM
- TGI [31]: > 23.4 µM
- TGI [32]: 3.75 µM
- TGI [33]: 13.5 µM
- TGI [34]: 5.83 µM
- TGI [35]: 15.7 µM
- TGI [36]: 7.89 µM
- TGI [37]: 8.52 µM
- TGI [38]: 5.37 µM
- TGI [40]: 14.7 µM
- TGI [41]: 3.5 µM
- TGI [42]: 12 µM
- TGI [43]: 20.6 µM
- TGI [44]: 2.95 µM
- TGI [45]: 14.4 µM
- TGI [46]: 11.8 µM
- TGI [47]: 18.6 µM
- TGI [48]: 3.95 µM
- TGI [49]: > 74.7 µM
- TGI [50]: 24.2 µM
- TGI [51]: 14.2 µM
- TGI [52]: 3.78 µM
- TGI [53]: 10.7 µM
- TGI [54]: 8.71 µM
- TGI [55]: 3.09 µM

Compound: [N-]=[N+]=NC1=C(c2ccccc2)C(=O)c2cccc3cccc1c23
- TGI [1]: 88.1 µM
- TGI [2]: 8.29 µM
- TGI [3]: > 100 µM
- TGI [5]: 34.1 µM
- TGI [6]: > 100 µM
- TGI [7]: > 100 µM
- TGI [8]: > 100 µM
- TGI [9]: > 100 µM
- TGI [56]: > 100 µM
- TGI [11]: > 100 µM
- TGI [12]: > 100 µM
- TGI [13]: > 100 µM
- TGI [14]: 91.1 µM
- TGI [15]: 91.1 µM
- TGI [16]: 48.6 µM
- TGI [17]: 27 µM
- TGI [18]: 95.2 µM
- TGI [19]: > 100 µM
- TGI [20]: > 100 µM
- TGI [21]: > 100 µM
- TGI [22]: > 100 µM
- TGI [23]: > 100 µM
- TGI [24]: > 100 µM
- TGI [57]: > 100 µM
- TGI [26]: > 100 µM
- TGI [27]: 21.1 µM
- TGI [29]: > 100 µM
- TGI [30]: 28.7 µM
- TGI [31]: > 100 µM
- TGI [32]: > 100 µM
- TGI [33]: > 100 µM
- TGI [34]: > 100 µM
- TGI [36]: > 100 µM
- TGI [37]: > 100 µM
- TGI [38]: 60.6 µM
- TGI [39]: > 100 µM
- TGI [40]: 26.5 µM
- TGI [41]: 91.1 µM
- TGI [42]: > 100 µM
- TGI [43]: > 100 µM
- TGI [44]: 18.1 µM
- TGI [45]: > 100 µM
- TGI [46]: > 100 µM
- TGI [47]: > 100 µM
- TGI [48]: 76.5 µM
- TGI [59]: > 100 µM
- TGI [49]: > 100 µM
- TGI [50]: 82.1 µM
- TGI [51]: 74.6 µM
- TGI [52]: > 100 µM
- TGI [53]: 29.2 µM
- TGI [54]: 34.9 µM
- TGI [55]: > 100 µM
